Values joined by “and” are separate entries in the source; they are usually repeats but may differ in a detail not shown here. Equal entries are not always repeated.
Key:
HIV = HIV infectivity of supernatant from whole blood mixed with HIV, on HT4-1022 cells; format: cell-based; details: whole blood mixed with HIV and Lipid-conjugate (50 μM Compound XXIV, 30 μM Compound XXII) for 30 min; FIG. 1.1
Text: The cells were then spun and the supernatant was examined for HIV infectivity on HT4-1022 cells as described by Margolis-Nunno et al. (Transfusion, 36, 743-750, 1996).

HIV-1IIIB = experiment: Inhibition of p24 production (HIV-1IIIB infection of MT-2 cells); format: cell-based; details: fourth day, p24 ELISA
Description: Experiment 1.2: Inhibition of HIV-1IIIB Infection
After 1 h, half of the culture medium was changed and replaced by fresh medium (with/without Lipid-conjugate) and after 24 h, the second half of the culture medium was changed and replaced by fresh medium (with/without Lipid-conjugate). On the fourth day after incubation at 37° C., 100 μl of culture supernatants were collected from each well and an equal volume of fresh medium was added to the wells. The collected supernatants were mixed with an equal volume of 5% (v/v) Triton X-100 and assayed for p24 antigen using an ELISA kit from Coulter Immunology (Hialeah, Fla.).

[1] = tested on: HIV-1IIIB-infected H9 cells and uninfected MT-2 cells; experiment: Inhibition of fusion between HIV-infected and uninfected cells; format: cell-based; details: for IC50 (mean ± SD), inhibition of fusion / IC90 (mean ± SD), inhibition of fusion: H9/HIV-1 IIIB + MT-2 cells, 2 h; for IC50 / IC90: Table 1.4
Description: In this assay, HIV-1IIIB-infected H9 cells were labeled with BCECF (2′,7′-bis(2-carboxyethyl)-5-6-carboxyfluorescein-acetoxymethyl-ester, Molecular Probes, Eugene, Oreg.) according to the manufacturer's instructions. BCECF-labeled H9/HIV-1 IIIB cells (10^4) were mixed with 1×10^5 uninfected MT-2 cells. After incubation in a 96-well plate at 37° C. for 2 h, the fused and unfused labeled cells were counted under an inverted fluorescence microscope at ×160 magnification. At least 200 BCECF-labeled cells were counted and the proportion of fused cells was determined Fusion tests were carried out in the presence and absence of graded quantities of the tested Lipid-conjugates. […] The IC50 represents the concentration of a drug that is required to achieve 50% inhibition. Similarly, the IC90 represents the concentration of a drug that is required to achieve 90% inhibition.

[2] = biological target: V3 (third variable) domain of the HIV-1 envelope glycoprotein gp120; experiment: V3 antibody binding (ELISA); parameters: species or system human immunodeficiency virus type 1 (HIV-1); details: standard ELISA
Description: V3 antibody binding is an assay that uses an antibody that binds to the V3 (third variable) domain of the human immunodeficiency virus type 1 (HIV-1) envelope glycoprotein gp120. Anti-V3 domain antibodies may provide an indicator of the presence and amount of HIV. V3 antibody binding was determined by standard ELISA.

TNF-α and IL-6 in serum = experiment: Serum cytokine levels in septic rats (ELISA); format: in vivo, rat
Description: Blood samples were collected 1, 6, 12, and 24 hours after LPS injection to assess cytokine concentrations (FIG. 4.3A). […] Thereafter, the animals received LPS (7.5 mg/kg) i.p. alone or together with Compound XXII (150 mg/kg) or Compound XXV (50 mg/kg). Blood samples were collected after LPS injection. A group of rats that was not treated with Lipid-conjugates or LPS served as negative controls (FIG. 4.3B). All cytokines were measured in separated serum by ELISA Immunoassays (R&D Systems GmbH, Wiesbaden, Germany) according to the instructions of the manufacturer.
In Experiment 4.5, sepsis was induced by LPS ([…] endotoxin, 5 mg/kg) and lipoteichoic acid (LTA, […] endotoxin, 5 mg/kg; Staph. aureus LTA, Sigma, Germany).

mice = experiment: Acute (7 day) toxicity test; format: in vivo; details: for Body weight (g) Final / Hematocrit % / RBC × 10^6 / WBC × 10^3: 7 day; for Body weight (g) Final / Hematocrit % / RBC × 10^6 / WBC × 10^3 / Body weight (g) Start: mean ± SEM; for toxicity: mortality rate, body weight, blood count, hematocrit, internal organ histology: mice, one week after a single i.p. dose of 1000, 500 or 200 mg/kg, versus untreated mice
Description: […] Mortality rate, body weight, blood count (red and white cells), hematocrit, and internal organ histology after sacrifice were assessed. These parameters were compared in Lipid-conjugate-treated and in control, untreated mice.

[3] = tested on: cysteinyl leukotrienes (LTC4, LTD4 and LTE4); experiment: Cysteinyl leukotriene level in BAL of OVA-induced asthmatic rats
[4] = tested on: TNFα production by BAL macrophages; experiment: TNFα production by macrophages from BAL of OVA-sensitized asthmatic rats; details: compared with Naive and Dx-treated rats; p<0.001 vs Asthmatic
[5] = tested on: Respiratory syncytial virus; format: cell-based, strain A2
[6] = tested on: Influenza A (H3N2 strain) virus; format: cell-based, Influenza type A, A/Panama/2007/99 (H3N2)
[7] = tested on: Madin Darby canine kidney (MDCK) cells; experiment: Cytotoxicity assay, visual observation, uninfected cells; format: cell-based; details: high concentration
Description: Uninfected cells were treated with each concentration of test compound in duplicate and run in parallel with the infected, treated wells in the CPE inhibition tests described above. The toxicity control cells (uninfected and treated) were examined under a light microscope for changes in cell appearance compared to control cells (uninfected, untreated) on the same plate as described above. The 50% cell inhibitory (cytotoxic) concentrations (IC50) were calculated by regression analysis.

Substance: dipalmitoyl-PE conjugated to HA [Compound XXII]
- HIV infectivity (HIV): prevent HIV infection of cells
- IC50 (HIV-1IIIB): 3.11 µM
- IC50 (mean ± SD), inhibition of p24 production (HIV-1IIIB): 207.0 ± 18.0 µg/mL
- IC90 (HIV-1IIIB): 5.76 µM
- IC90 (mean ± SD), inhibition of p24 production (HIV-1IIIB): 384.3 ± 79.3 µg/mL
- IC50 (mean ± SD), inhibition of fusion [1]: >500 µg/mL
- IC90 (mean ± SD), inhibition of fusion [1]: >500 µg/mL
- IC50 [1]: > 7.5 µM
- IC90 [1]: > 7.5 µM
- IC50 [2]: 45 µM
- cytokine production induced by LPS or LPS + LTA (TNF-α and IL-6 in serum; 150 mg/kg, 5 mg/kg i.p. LPS, or LPS + 5 mg/kg i.p. LTA, 1 and 6 hours): effective in suppressing cytokine production
- endotoxin-induced cytokine production (TNF-α and IL-6 in serum; i.v. at the same time as LPS i.p., versus i.p. pretreatment): suppressed equally well
- Body weight (g) Final (mice; 250 mg/kg body weight): 23.1 ± 0.6 g
- Hematocrit % (mice; 250 mg/kg body weight): 43.3 ± 0.7%
- RBC × 10^6 (mice; 250 mg/kg body weight): 11.4 ± 0.1 × 10^6
- WBC × 10^3 (mice; 250 mg/kg body weight): 7.7 ± 0.2 × 10^3
- Body weight (g) Start (mice; 250 mg/kg body weight): 22.1 ± 0.4 g
- Body weight (g) Final (mice; 500 mg/kg body weight): 22.3 ± 0.4 g
- Hematocrit % (mice; 500 mg/kg body weight): 44.7 ± 2.3%
- RBC × 10^6 (mice; 500 mg/kg body weight): 11.5 ± 0.3 × 10^6
- WBC × 10^3 (mice; 500 mg/kg body weight): 8.1 ± 1.3 × 10^3
- Body weight (g) Start (mice; 500 mg/kg body weight): 21.4 ± 0.3 g
- Body weight (g) Final (mice; 1000 mg/kg body weight): 22.1 ± 0.2 g
- Hematocrit % (mice; 1000 mg/kg body weight): 40.3 ± 0.7%
- RBC × 10^6 (mice; 1000 mg/kg body weight): 10.9 ± 0.4 × 10^6
- WBC × 10^3 (mice; 1000 mg/kg body weight): 7.4 ± 0.6 × 10^3
- Body weight (g) Start (mice; 1000 mg/kg body weight): 21.7 ± 0.2 g
- toxicity: mortality rate, body weight, blood count, hematocrit, internal organ histology (mice): did not alter the parameters
- CysLT levels in BAL ([3]; SC administration, compared with Naive rats): no significant difference
- CysLT levels in BAL ([3]; aerosol inhalation, compared with Naïve rats, P<0.01 vs Asthmatic): no significant difference
- TNFα production, BAL macrophages [4]: no significant differences

Substance: dipalmitoyl-phosphatidyl-ethanolamine conjugated to heparin [Compound XXIV]
- HIV infectivity (HIV): prevent HIV infection of cells
- IC50 (HIV-1IIIB): 0.7 µM
- IC50 (mean ± SD), inhibition of p24 production (HIV-1IIIB): 10.0 ± 2.3 µg/mL
- IC90 (HIV-1IIIB): 1.35 µM
- IC90 (mean ± SD), inhibition of p24 production (HIV-1IIIB): 19.3 ± 4.5 µg/mL
- IC50 (mean ± SD), inhibition of fusion [1]: 7.9 ± 1.3 µg/mL
- IC90 (mean ± SD), inhibition of fusion [1]: 15.3 ± 3.9 µg/mL
- IC50 [1]: 0.55 µM
- IC90 [1]: 1.07 µM
- IC50 [2]: 140 µM
- EC50 ([5]; low concentrations, Neutral Red Uptake Assay, Respiratory Syncytial A): >100 µg/mL
- activity vs RSV by neutral red assay ([5]; lower range of doses): not active
- SI (IC50/EC50) [6]: 2.9 and 2
- EC50 ([6]; high concentration, Visual Observation Assay, Influenza A (H3N2 strain)): 200 µg/mL
- IC50 ([7]; listed as Influenza A (H1N1 strain)): 35 µg/mL
- IC50 ([7]; listed as Influenza A (H3N2 strain)): 100 µg/mL
- IC50 ([7]; listed as Influenza B): 90 µg/mL
- toxicity: mortality rate, body weight, blood count, hematocrit, internal organ histology (mice): did not alter the parameters

— patent US7504384B2 (priority 2000, dated 2009)
